Literature values as cited in patent US9233112B2, “Pharmaceutical compositions of cefixime” (LUPIN LIMITED, priority 2006, dated 2016).

Solubility in water: poorly soluble in water
Compound: C=CC1=C(C(=O)O)N2C(=O)[C@@H](NC(=O)/C(=N\OCC(=O)O)c3csc(N)n3)[C@H]2SC1 [Cefixime]
